Values quoted from earlier work, collected in patent publication US12042566B2, “Formulations of homotaurines and salts thereof” (Confluence Pharmaceuticals, LLC, priority 2017, dated 2024).

Columns and labels:
[1] = high solubility and low passive permeability
[2] = humans, reportedly

Question: For `CC(=O)NCCCS(=O)(=O)O` [acamprosate, 3-(Acetylamino)propylsulfonic acid], which “Biopharmaceutics Classification System (BCS) class” value [1] is on record?
Answer: The value was “Class III”.

Question: What about the oral bioavailability [2] of the same compound?
Answer: Its oral bioavailability is “about 11%”.
